Results reported in patent US9340590B2 (priority 2011, dated 2016).
Where two headings read alike, the source gives them in different places. Positions of bridges follow the written chain, without caps; N, C: chain ends. Non-standard residues stand in square brackets, D forms with d. Residues, ends and D or L forms follow the SMILES beside them. Lys(Me2) = CN(C)CCCC[C@H](N)C(=O)O

How the values were obtained:
hNav1.5 = hNav1.5 (Homo sapiens, UniProt Q14524); assay: cell-based
hNav1.3 = hNav1.3 (Homo sapiens, UniProt Q9NY46); assay: cell-based; settings: IonWorks Quattro, read-out: IWQ Use Nav1.3
[1] = IonWorks Quattro, Use, read-out: IWQ Use Nav1.5

hNav1.5, sequence (Q14524 whole entry, looked up): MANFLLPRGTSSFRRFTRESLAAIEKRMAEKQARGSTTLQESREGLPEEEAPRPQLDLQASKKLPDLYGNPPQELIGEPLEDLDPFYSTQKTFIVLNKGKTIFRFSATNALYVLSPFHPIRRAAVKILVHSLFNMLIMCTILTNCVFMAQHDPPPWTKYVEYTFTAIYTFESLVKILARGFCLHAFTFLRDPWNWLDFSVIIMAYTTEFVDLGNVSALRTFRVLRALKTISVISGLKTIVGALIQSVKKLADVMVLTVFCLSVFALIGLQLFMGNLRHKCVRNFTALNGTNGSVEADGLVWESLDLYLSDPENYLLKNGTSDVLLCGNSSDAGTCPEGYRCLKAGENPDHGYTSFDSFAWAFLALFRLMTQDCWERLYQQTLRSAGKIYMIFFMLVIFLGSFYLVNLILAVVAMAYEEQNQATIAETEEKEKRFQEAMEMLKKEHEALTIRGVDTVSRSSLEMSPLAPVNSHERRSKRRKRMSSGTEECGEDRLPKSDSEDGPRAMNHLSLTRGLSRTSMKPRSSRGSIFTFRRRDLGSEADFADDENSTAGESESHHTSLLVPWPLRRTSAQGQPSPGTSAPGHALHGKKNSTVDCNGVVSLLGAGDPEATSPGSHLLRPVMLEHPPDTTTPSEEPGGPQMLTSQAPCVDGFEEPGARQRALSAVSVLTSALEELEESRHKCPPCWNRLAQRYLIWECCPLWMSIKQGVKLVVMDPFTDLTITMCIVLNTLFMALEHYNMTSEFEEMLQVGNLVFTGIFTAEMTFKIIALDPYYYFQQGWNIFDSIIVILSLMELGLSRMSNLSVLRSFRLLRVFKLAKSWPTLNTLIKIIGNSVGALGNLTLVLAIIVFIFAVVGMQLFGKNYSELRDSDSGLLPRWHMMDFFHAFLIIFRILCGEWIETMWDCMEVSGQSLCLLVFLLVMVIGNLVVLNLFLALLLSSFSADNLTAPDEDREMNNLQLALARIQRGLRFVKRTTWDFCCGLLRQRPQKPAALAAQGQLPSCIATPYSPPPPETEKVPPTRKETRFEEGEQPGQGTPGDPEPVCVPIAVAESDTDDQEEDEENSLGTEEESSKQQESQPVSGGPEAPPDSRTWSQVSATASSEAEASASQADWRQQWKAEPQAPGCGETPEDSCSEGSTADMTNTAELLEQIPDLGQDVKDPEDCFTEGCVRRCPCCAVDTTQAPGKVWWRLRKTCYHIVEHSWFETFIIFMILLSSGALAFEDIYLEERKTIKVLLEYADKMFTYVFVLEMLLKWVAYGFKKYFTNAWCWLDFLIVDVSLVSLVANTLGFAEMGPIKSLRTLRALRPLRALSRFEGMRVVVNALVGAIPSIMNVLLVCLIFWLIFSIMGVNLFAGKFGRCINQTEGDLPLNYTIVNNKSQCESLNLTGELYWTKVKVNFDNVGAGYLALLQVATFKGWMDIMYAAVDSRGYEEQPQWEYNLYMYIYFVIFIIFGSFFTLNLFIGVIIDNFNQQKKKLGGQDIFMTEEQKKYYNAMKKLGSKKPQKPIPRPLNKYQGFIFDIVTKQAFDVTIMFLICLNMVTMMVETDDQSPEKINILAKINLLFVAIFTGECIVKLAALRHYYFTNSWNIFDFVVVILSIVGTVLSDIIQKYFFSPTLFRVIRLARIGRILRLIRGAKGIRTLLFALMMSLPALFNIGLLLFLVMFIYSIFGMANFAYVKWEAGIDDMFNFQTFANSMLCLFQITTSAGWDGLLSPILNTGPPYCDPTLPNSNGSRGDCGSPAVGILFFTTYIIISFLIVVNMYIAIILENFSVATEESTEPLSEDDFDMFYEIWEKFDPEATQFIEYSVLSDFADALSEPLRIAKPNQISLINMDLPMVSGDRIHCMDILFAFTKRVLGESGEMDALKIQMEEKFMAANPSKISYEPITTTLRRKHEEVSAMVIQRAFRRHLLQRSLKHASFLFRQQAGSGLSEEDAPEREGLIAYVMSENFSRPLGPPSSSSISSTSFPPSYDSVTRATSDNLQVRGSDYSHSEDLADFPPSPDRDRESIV
hNav1.3, sequence (Q9NY46 whole entry, looked up): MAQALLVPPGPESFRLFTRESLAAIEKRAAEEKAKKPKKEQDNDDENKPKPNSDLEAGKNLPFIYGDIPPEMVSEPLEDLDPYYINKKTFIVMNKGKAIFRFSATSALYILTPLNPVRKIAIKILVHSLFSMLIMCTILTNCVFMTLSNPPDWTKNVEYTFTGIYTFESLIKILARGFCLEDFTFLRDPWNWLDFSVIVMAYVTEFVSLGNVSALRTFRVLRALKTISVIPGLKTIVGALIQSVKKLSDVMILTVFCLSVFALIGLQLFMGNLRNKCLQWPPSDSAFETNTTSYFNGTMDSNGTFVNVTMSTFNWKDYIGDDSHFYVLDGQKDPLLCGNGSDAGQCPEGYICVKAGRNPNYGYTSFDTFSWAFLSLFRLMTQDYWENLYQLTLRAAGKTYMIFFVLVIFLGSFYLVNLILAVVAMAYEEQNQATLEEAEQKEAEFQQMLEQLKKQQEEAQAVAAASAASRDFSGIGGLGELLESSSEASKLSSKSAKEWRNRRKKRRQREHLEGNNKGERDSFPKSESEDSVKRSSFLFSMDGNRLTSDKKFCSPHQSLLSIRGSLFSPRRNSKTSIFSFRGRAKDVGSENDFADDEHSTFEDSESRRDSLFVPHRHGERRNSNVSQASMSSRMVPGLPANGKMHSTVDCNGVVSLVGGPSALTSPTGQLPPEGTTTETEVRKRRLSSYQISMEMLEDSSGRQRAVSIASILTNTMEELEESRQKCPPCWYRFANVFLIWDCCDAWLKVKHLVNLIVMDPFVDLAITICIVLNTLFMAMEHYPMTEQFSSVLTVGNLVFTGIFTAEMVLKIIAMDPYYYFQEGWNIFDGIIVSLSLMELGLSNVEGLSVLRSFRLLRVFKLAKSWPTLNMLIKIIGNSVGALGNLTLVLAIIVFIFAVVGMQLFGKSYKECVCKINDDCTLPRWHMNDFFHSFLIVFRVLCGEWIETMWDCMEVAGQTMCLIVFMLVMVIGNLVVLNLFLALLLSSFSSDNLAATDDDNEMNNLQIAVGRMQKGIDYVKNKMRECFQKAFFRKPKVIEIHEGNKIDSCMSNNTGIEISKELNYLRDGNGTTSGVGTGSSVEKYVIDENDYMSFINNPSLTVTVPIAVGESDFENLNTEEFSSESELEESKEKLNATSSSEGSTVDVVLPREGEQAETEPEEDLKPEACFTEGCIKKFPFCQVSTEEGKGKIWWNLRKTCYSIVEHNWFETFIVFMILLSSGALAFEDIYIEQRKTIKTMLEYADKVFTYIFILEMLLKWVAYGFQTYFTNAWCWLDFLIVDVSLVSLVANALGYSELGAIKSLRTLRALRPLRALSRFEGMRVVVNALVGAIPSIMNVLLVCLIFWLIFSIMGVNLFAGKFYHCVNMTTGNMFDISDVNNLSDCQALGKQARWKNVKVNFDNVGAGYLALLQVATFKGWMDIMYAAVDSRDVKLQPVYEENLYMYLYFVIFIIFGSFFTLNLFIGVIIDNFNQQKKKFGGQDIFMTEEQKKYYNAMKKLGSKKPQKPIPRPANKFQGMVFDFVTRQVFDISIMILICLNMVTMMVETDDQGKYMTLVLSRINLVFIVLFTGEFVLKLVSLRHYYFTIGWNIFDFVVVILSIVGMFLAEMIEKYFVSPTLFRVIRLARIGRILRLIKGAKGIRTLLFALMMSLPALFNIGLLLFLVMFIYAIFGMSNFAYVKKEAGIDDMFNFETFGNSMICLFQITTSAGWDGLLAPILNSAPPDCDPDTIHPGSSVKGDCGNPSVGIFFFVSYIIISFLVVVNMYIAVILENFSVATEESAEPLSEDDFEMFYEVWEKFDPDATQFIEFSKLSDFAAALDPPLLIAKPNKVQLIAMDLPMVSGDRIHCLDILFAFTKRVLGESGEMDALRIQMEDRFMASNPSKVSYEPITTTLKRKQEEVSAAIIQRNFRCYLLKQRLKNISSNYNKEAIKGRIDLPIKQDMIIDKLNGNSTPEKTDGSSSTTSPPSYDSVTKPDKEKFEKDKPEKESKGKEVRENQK

SMILES	IC50 (hNav1.5; [1]) [µM]	IC50 (hNav1.3; Use) [µM]	further results
CSCC[C@@H]1NC(=O)[C@H](Cc2ccccc2)NC(=O)CNC(=O)[C@H](CC(C)C)NC(=O)[C@@H](NC(=O)[C@@H](N)CC(=O)O)CSSC[C@@H]2NC(=O)[C@@H]3CSSC[C@@H](C(=O)N[C@@H](CCCCN)C(=O)N[C@@H](Cc4ccc(O)cc4)C(=O)N[C@H](C(=O)N[C@@H](Cc4ccccc4)C(N)=O)C(C)C)NC(=O)[C@H](Cc4c[nH]c5ccccc45)NC(=O)[C@H](CCCCN)NC(=O)[C@H](Cc4cnc[nH]4)NC(=O)[C@H]([C@@H](C)O)NC(=O)[C@H](CCCNC(=N)N)NC(=O)[C@H](CO)NC(=O)[C@H](CSSC[C@H](NC(=O)[C@H](CCCCN)NC(=O)[C@H](CCCNC(=N)N)NC1=O)C(=O)N[C@@H](Cc1ccccc1)C(=O)N1CCC[C@H]1C(=O)N[C@@H](CC(=O)O)C(=O)N[C@@H](CC(N)=O)C(=O)N[C@@H](CC(=O)O)C(=O)N[C@@H](CCCCN)C(=O)N3)NC(=O)[C@H](C(C)C)NC(=O)[C@H](CC(C)C)NC(=O)[C@H](CC(N)=O)NC(=O)[C@@H]1CCCN1C(=O)[C@H](CCCNC(=N)N)NC2=O [compound 302] (H-DCLGFMRKCFPDNDKCCRPNLVCSRTHKWCKYVF-NH2; disulfide 2-17, 9-23, 16-30)	5.33	0.08	–
CSCC[C@@H]1NC(=O)[C@H](Cc2ccccc2)NC(=O)CNC(=O)[C@H](CC(C)C)NC(=O)[C@@H](NC(=O)[C@@H](N)CC(=O)O)CSSC[C@@H]2NC(=O)[C@@H]3CSSC[C@@H](C(=O)N[C@@H](CCCCN)C(=O)N[C@@H](Cc4ccc(O)cc4)C(=O)N[C@H](C(=O)N[C@@H](Cc4ccccc4)C(N)=O)C(C)C)NC(=O)[C@H](Cc4c[nH]c5ccccc45)NC(=O)[C@H](CCCCN)NC(=O)[C@H](Cc4cnc[nH]4)NC(=O)[C@H]([C@@H](C)O)NC(=O)[C@H](CCCNC(=N)N)NC(=O)[C@H](CO)NC(=O)[C@H](CSSC[C@H](NC(=O)[C@H](CCCCN)NC(=O)[C@H](CCCNC(=N)N)NC1=O)C(=O)N[C@@H](Cc1cnc[nH]1)C(=O)N1CCC[C@H]1C(=O)N[C@@H](CC(=O)O)C(=O)N[C@@H](CC(N)=O)C(=O)N[C@@H](CC(=O)O)C(=O)N[C@@H](CCCCN)C(=O)N3)NC(=O)[C@H](C(C)C)NC(=O)[C@H](CC(C)C)NC(=O)[C@H](CC(N)=O)NC(=O)[C@@H]1CCCN1C(=O)[C@H](CCCNC(=N)N)NC2=O [compound 304] (H-DCLGFMRKCHPDNDKCCRPNLVCSRTHKWCKYVF-NH2; disulfide 2-17, 9-23, 16-30)	6.36	0.03	–
CSCC[C@@H]1NC(=O)[C@H](Cc2ccccc2)NC(=O)CNC(=O)[C@H](CC(C)C)NC(=O)[C@@H](NC(=O)[C@@H](N)CC(=O)O)CSSC[C@@H]2NC(=O)[C@@H]3CSSC[C@@H](C(=O)N[C@@H](CCCCN)C(=O)N[C@@H](Cc4ccc(O)cc4)C(=O)N[C@H](C(=O)N[C@@H](Cc4ccccc4)C(N)=O)C(C)C)NC(=O)[C@H](Cc4c[nH]c5ccccc45)NC(=O)[C@H](CCCCN)NC(=O)[C@H](Cc4cnc[nH]4)NC(=O)[C@H]([C@@H](C)O)NC(=O)[C@H](CCCNC(=N)N)NC(=O)[C@H](CO)NC(=O)[C@H](CSSC[C@H](NC(=O)[C@H](CCCCN)NC(=O)[C@H](CCCNC(=N)N)NC1=O)C(=O)N[C@@H](CO)C(=O)N1CCC[C@H]1C(=O)N[C@@H](CC(=O)O)C(=O)N[C@@H](CC(N)=O)C(=O)N[C@@H](CC(=O)O)C(=O)N[C@@H](CCCCN)C(=O)N3)NC(=O)[C@H](C(C)C)NC(=O)[C@H](CC(C)C)NC(=O)[C@H](CC(N)=O)NC(=O)[C@@H]1CCCN1C(=O)[C@H](CCCNC(=N)N)NC2=O [compound 305] (H-DCLGFMRKCSPDNDKCCRPNLVCSRTHKWCKYVF-NH2; disulfide 2-17, 9-23, 16-30)	4.64	0.09	–
CC[C@H](C)[C@@H]1NC(=O)[C@@H]2CSSC[C@@H]3NC(=O)[C@H](C(C)C)NC(=O)[C@H](CC(C)C)NC(=O)[C@H](CC(N)=O)NC(=O)[C@@H]4CCCN4C(=O)[C@H](CCCCN(C)C)NC(=O)[C@H](CSSC[C@H](NC(=O)[C@@H](N)CC(=O)O)C(=O)N[C@@H](CC(C)C)C(=O)NCC(=O)N[C@@H](Cc4ccccc4)C(=O)N[C@@H](CCSC)C(=O)N[C@@H](CCCNC(=N)N)C(=O)N[C@@H](CCCCN)C(=O)N2)NC(=O)[C@H](CSSC[C@@H](C(=O)N[C@@H](CCCCN)C(=O)N[C@@H](Cc2ccc(O)cc2)C(=O)N[C@H](C(=O)N[C@@H](Cc2ccccc2)C(N)=O)C(C)C)NC(=O)[C@H](Cc2c[nH]c4ccccc24)NC(=O)[C@H](CCCCN)NC(=O)[C@H](Cc2cnc[nH]2)NC(=O)[C@H]([C@@H](C)O)NC(=O)[C@H](CCCNC(=N)N)NC(=O)[C@H](CO)NC3=O)NC(=O)[C@H](CCCCN)NC(=O)[C@H](CC(=O)O)NC(=O)[C@H](CC(N)=O)NC(=O)[C@H](CC(=O)O)NC(=O)[C@@H]2CCCN2C1=O [compound 314] (H-DCLGFMRKCIPDNDKCC[Lys(Me2)]PNLVCSRTHKWCKYVF-NH2; disulfide 2-17, 9-23, 16-30)	6.55	0.08	–
CC[C@H](C)[C@@H]1NC(=O)[C@@H]2CSSC[C@@H]3NC(=O)[C@H](C(C)C)NC(=O)[C@H](CC(C)C)NC(=O)[C@H](CC(N)=O)NC(=O)[C@@H]4CCCN4C(=O)[C@H](CCCNC(=N)N)NC(=O)[C@H](CSSC[C@H](NC(=O)[C@@H](N)CC(=O)O)C(=O)N[C@@H](CC(C)C)C(=O)NCC(=O)N[C@@H](Cc4ccccc4)C(=O)N[C@@H](CCSC)C(=O)N[C@@H](CCCNC(=N)N)C(=O)N[C@@H](CCCCN)C(=O)N2)NC(=O)[C@H](CSSC[C@@H](C(=O)N[C@@H](CCCCN)C(=O)N[C@@H](Cc2ccc(O)cc2)C(=O)N[C@H](C(=O)N[C@@H](Cc2ccccc2)C(N)=O)C(C)C)NC(=O)[C@H](Cc2c[nH]c4ccccc24)N(C)C(=O)[C@H](CCCCN)NC(=O)[C@H](Cc2c[nH]cn2)NC(=O)[C@H]([C@@H](C)O)NC(=O)[C@H](CCCNC(=N)N)NC(=O)[C@H](CO)NC3=O)NC(=O)[C@H](CCCCN)NC(=O)[C@H](CC(=O)O)NC(=O)[C@H](CC(N)=O)NC(=O)[C@H](CC(=O)O)NC(=O)[C@@H]2CCCN2C1=O [compound 357]	–	–	IC50 (hNav1.5; IWQ Use Nav1.5 (μM)): > 5 µM; IC50 (hNav1.3; Table 24, use, […]): > 5 µM
CC[C@H](C)[C@@H]1NC(=O)[C@@H]2CSSC[C@@H]3NC(=O)[C@H](C(C)C)NC(=O)[C@H](CC(C)C)NC(=O)[C@H](CC(N)=O)NC(=O)[C@@H]4CCCN4C(=O)[C@H](CCCNC(=N)N)NC(=O)[C@H](CSSC[C@H](NC(=O)[C@@H](N)CC(=O)O)C(=O)N[C@@H](CC(C)C)C(=O)NCC(=O)N[C@@H](Cc4ccccc4)C(=O)N[C@@H](CCSC)C(=O)N[C@@H](CCCNC(=N)N)C(=O)N[C@@H](CCCCN)C(=O)N2)NC(=O)[C@H](CSSC[C@@H](C(=O)N[C@@H](CCCCN)C(=O)N[C@@H](Cc2ccc(O)cc2)C(=O)N[C@H](C(N)=O)C(C)C)NC(=O)[C@H](Cc2c[nH]c4ccccc24)NC(=O)[C@H](CCCCN)NC(=O)[C@H](Cc2cnc[nH]2)NC(=O)[C@H]([C@@H](C)O)NC(=O)[C@H](CCCNC(=N)N)NC(=O)[C@H](CO)NC3=O)NC(=O)[C@H](CCCCN)NC(=O)[C@H](CC(=O)O)NC(=O)[C@H](CC(N)=O)NC(=O)[C@H](CC(=O)O)NC(=O)[C@@H]2CCCN2C1=O [compound 415] (H-DCLGFMRKCIPDNDKCCRPNLVCSRTHKWCKYV-NH2; disulfide 2-17, 9-23, 16-30)	–	–	IC50 (hNav1.5; IonWorks Quattro, use-dependent, […], read-out: IWQ Use Nav1.5): 10.8 µM; IC50 (hNav1.3; use-dependent, […]): 1.3 µM
